Data published in patent US8895047B2, “Combined fibrinolytic and antimicrobial catheter and uses thereof” (priority 2007, dated 2014).

Tests used:
S. epidermidis = assay: Minimum inhibitory concentration of chlorhexidine acetate against S. epidermidis; assay type: cell-based
Experimental: FIG. 4. Chlorhexidine activity in the presence of urokinase. […] CHA MIC Control=urokinase in tris-buffered saline (TBS)+CHA+Mueller-Hinton broth (MHB); Growth Control=dimethyl sulfoxide (DMSO)+TBS+S. epidermidis+MHB; Negative Control=DMSO+TBS+MHB.
To determine if urokinase affects the antimicrobial efficacy of chlorhexidine, the following experiment was conducted. The minimum inhibitory concentration (MIC) of chlorhexidine acetate (CHA) against S. epidermidis is 0.5 ppm in the absence of urokinase. Absorbance above baseline on the plot in […] indicates growth of microbial organisms (i.e., inability to inhibit microbial growth). An increase in the MIC would be indicative of a reduction in the antimicrobial potency of CHA due to interference by Urokinase.

human urokinase enzyme = target: T1, human urokinase enzyme (Homo sapiens, UniProt P00749); assay: uPA activity assay (chromogenic substrate) after incubation with antimicrobial agents; assay type: biochemical; settings: for Urokinase activity in the presence of antimicrobial agent: concentrations up to 10 μg/mL, 24 hours at 37° C. with 88 units (0.5 μg) uPA in PBS, FIGS. 2 and 3
T1 construct: purchased American Diagnostica
Experimental: To check the compatibility of urokinase (uPA) and chlorhexidine acetate (CHA), human urokinase enzyme (American Diagnostica) at different concentrations (0, 0.05, 0.5, and 1.0 μg/mL) was incubated with CHA at concentrations between 0-10 μg/mL for 24 hours at 37° C. in phosphate buffered saline (PBS). Subsequently, urokinase activity was measured using uPA Activity Assay Kit (Chemicon). Samples were incubated with an assay buffer and a chromogenic substrate for uPA resulting in the formation of a colored complex followed by reading the absorbance on a spectrophotometer at 405 nm. In a 96 well plate, different combinations of chlorhexidine (CHX), gentian violet (GV), minocycline and rifampin were incubated at concentrations of 0, 1, 10 μg/mL, for 24 hours at 37° C., with 88 units (0.5 μg) of uPA in PBS. Urokinase activity was measured using uPA Activity Assay Kit as described earlier.

human streptokinase = target: T2, human streptokinase (Streptococcus dysgalactiae subsp. equisimilis, UniProt P00779); assay: Streptokinase activity assay (S-2251 chromogenic substrate, plasminogen) after incubation with antimicrobial agents; assay type: biochemical; settings: any concentration up to 10 μg/mL, overnight at 37° C. with 16.5 units streptokinase; FIG. 7
T2 construct: purchased Sigma
Experimental: In a 96 well plate, different combinations of chlorhexidine (0, 1, 10 μg/mL) and gentian violet (0, 1, 10 μg/mL) were incubated overnight with 16.5 units of human streptokinase (Sigma) at 37° C., in 10 mM Tris-HCl buffer containing 0.1M NaCl and 1 mg/mL albumin. Streptokinase activity was measured using a chromogenic substrate S-2251 (Chromogenix). Samples were incubated with 0.6 mM S-2251 and 0.1 U/ml plasminogen (Sigma) for one hour. Hydrolysis of the substrate was measured at 405 nm and a standard curve was generated with the units plotted against the slope of the hydrolysis reaction.

human tPA = target: T3, human tPA (Homo sapiens, UniProt P00750); assay: tPA activity assay (chromogenic substrate) after incubation with antimicrobial agents; assay type: biochemical; settings: concentrations up to 10 μg/mL, overnight at 37° C. with 50 units human tPA; FIGS. 5 and 6
T3 construct: purchased Sigma
Experimental: Different combinations of CHX, GV, minocycline and rifampin (0, 1, 10 μg/mL) were incubated overnight with 50 units of human tPA (Sigma) at 37° C., in buffer (30 mM Tris-HCl, 30 mM Imidazole, 130 mM NaCl, 1% protease free albumin). Samples were incubated with the chromogenic substrate (Sigma); tPA activity was determined by the hydrolysis of the substrate being measured continuously at 405 nm for 5 min at 50 seconds intervals. A standard curve was generated and the units plotted against the slope of the hydrolysis reaction.

T3 sequence (P00750 36-562): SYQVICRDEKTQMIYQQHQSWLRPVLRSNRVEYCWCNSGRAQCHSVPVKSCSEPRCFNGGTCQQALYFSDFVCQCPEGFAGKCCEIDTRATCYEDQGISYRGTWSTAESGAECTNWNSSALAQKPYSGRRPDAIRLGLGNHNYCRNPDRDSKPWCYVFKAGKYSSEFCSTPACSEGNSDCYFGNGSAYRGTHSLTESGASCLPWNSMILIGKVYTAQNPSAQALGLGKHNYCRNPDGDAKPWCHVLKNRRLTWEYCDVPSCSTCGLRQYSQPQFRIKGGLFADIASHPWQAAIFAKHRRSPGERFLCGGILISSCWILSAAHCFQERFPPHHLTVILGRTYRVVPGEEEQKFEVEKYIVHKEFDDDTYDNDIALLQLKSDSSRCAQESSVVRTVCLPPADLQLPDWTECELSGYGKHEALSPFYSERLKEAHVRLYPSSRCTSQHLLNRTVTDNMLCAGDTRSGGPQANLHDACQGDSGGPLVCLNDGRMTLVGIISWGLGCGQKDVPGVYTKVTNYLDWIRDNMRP
T2 sequence (P00779 27-440): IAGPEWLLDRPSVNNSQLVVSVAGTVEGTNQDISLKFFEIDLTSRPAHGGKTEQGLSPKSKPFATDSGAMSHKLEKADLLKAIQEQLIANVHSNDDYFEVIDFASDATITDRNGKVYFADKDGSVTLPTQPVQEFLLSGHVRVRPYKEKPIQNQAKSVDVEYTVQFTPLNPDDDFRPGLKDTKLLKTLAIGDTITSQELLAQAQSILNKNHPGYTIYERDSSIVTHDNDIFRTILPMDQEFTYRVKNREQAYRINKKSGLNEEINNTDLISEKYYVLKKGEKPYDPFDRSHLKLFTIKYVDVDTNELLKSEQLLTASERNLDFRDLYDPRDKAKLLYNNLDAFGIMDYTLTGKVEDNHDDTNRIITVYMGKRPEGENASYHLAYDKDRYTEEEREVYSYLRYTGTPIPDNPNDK

Compound	minimum inhibitory concentration (MIC) (S. epidermidis; in the absence of urokinase)	MIC in the presence of Urokinase (S. epidermidis; presence of urokinase, FIG. 4)	Urokinase activity in the presence of CHA (human urokinase enzyme; CHA 0-10 μg/mL with uPA 0-1.0 μg/mL, 24 hours at 37° C. in PBS, CHA:uPA ratio 0.05 or higher, FIG. 1)	streptokinase activity in the presence of antimicrobial agent (human streptokinase)	Urokinase activity in the presence of antimicrobial agent (human urokinase enzyme)	tPA activity in the presence of antimicrobial agent (human tPA)
CC(=O)O.CC(=O)O.NC(=N\CCCCCC/N=C(N)/N=C(\N)Nc1ccc(Cl)cc1)/N=C(\N)Nc1ccc(Cl)cc1 [CHA, chlorhexidine acetate]	0.5 ppm	not affected	not affected	–	–	–
[H]/N=C(\N/C(=N/[H])NCCCCCCNC(=N)NC(=N)Nc1ccc(Cl)cc1)Nc1ccc(Cl)cc1 [CHX, chlorhexidine]	–	–	–	unaffected	not adversely affected	not affected
CN(C)c1ccc(C(=C2C=CC(=[N+](C)C)C=C2)c2ccc(N(C)C)cc2)cc1 [GV, gentian violet]	–	–	–	unaffected	not adversely affected	not affected
CO[C@H]1/C=C/O[C@@]2(C)Oc3c(C)c(O)c4c(O)c(c(/C=N/N5CCN(C)CC5)c(O)c4c3C2=O)NC(=O)/C(C)=C\C=C\[C@H](C)[C@H](O)[C@@H](C)[C@@H](O)[C@@H](C)[C@H](OC(C)=O)[C@@H]1C [rifampin]	–	–	–	–	not adversely affected	not affected
